Patent US8999967B2, “Tricyclic fused ring inhibitors of hepatitis C” (Presidio Pharmaceuticals, Inc., priority 2010, dated 2015)

The compounds below were run on HCV 1b_Huh-Luc/Neo-ET cell line (genotype 1b replicon in Huh 7 cells) (assay: HCV replicon assay (luciferase readout)). Conditions: Hepatitis C virus, HCV 1b replicon in Huh 7 cells, 72 h incubation, EC50 range class, read-out: Inhibition of HCV genotype 1b.
Format: cell-based
Method: Biological activity of the compounds of the invention was determined using an HCV replicon assay. The HCV 1b_Huh-Luc/Neo-ET cell line persistently expressing a bicistronic genotype 1b replicon in Huh 7 cells was obtained from ReBLikon GMBH. This cell line was used to test compound inhibition using luciferase enzyme activity readout as a measurement of compound inhibition of replicon levels.
On Day 1 (the day after plating cells), each compound is added in triplicate to the cells. Plates are incubated for 72 h prior to determining luciferase levels. Enzyme activity was measured using a Bright-Glo Kit (cat. number E2620) manufactured by Promega Corporation. The following equation was used to generate a percent control value for each compound. % Control=(Compound Luciferase Level/Control Luciferase Level)*100
The EC50 value was determined using GraphPad Prism and the following equation: Y=Bottom asymptote+(Top asymptote-Bottom asymptote)/(1+10^((Log EC50−X)*HillSlope))
EC50 values of compounds are determined several times in the replicon assay to generate average EC50 values. […]
In the case of `CC[C@H](C)[C@H](NC(=O)OC)C(=O)N1CCC[C@H]1c1ncc(-c2ccc3c(=O)c4cc(-c5cnc([C@@H]6CCCN6C(=O)[C@@H](NC(=O)OC)[C@@H](C)CC)[nH]5)ccc4oc3c2)[nH]1` [Compound 138], the EC50 is reported as < 1 nM. With `COC(=O)N[C@H](C(=O)N1CCC[C@H]1c1ncc(-c2ccc3c(=O)c4cc(-c5cnc([C@@H]6CCCN6C(=O)[C@@H](NC(=O)OC)C6CCCC6)[nH]5)ccc4oc3c2)[nH]1)C1CCCC1` [Compound 139] the EC50 was < 1 nM. With `COC(=O)N[C@H](C(=O)N1CCCC[C@H]1c1ncc(-c2ccc3oc4cc(-c5cnc([C@@H]6CCCN6C(=O)[C@@H](NC(=O)OC)[C@@H](C)OC)[nH]5)ccc4c(=O)c3c2)[nH]1)[C@@H](C)OC` [Compound 140] the EC50 was < 1 nM. For `COC(=O)N[C@H](C(=O)N1CCCC[C@H]1c1ncc(-c2ccc3oc4cc(-c5cnc([C@@H]6CCCN6C(=O)[C@@H](NC(=O)OC)C(C)C)[nH]5)ccc4c(=O)c3c2)[nH]1)C(C)C` [Compound 141], the EC50 was < 1 nM. With `COC(=O)N[C@H](C(=O)N1CCC[C@H]1c1ncc(-c2ccc3c(=O)c4cc(-c5cnc([C@@H]6COCCN6C(=O)[C@@H](NC(=O)OC)C(C)C)[nH]5)ccc4oc3c2)[nH]1)C(C)C` [Compound 142] the EC50 was < 1 nM. With `CC[C@H](C)[C@H](NC(=O)OC)C(=O)N1CCC[C@H]1c1ncc(-c2ccc3c(c2)Oc2ccc(-c4cnc([C@@H]5COCCN5C(=O)[C@@H](NC(=O)OC)[C@@H](C)CC)[nH]4)cc2C3)[nH]1` [Compound 143] the EC50 was < 1 nM. In the case of `COC(=O)N[C@H](C(=O)N1CCC[C@H]1c1ncc(-c2ccc3c(c2)Oc2ccc(-c4cnc([C@@H]5COCCN5C(=O)[C@@H](NC(=O)OC)C(C)C)[nH]4)cc2C3)[nH]1)C(C)C` [Compound 144], the EC50 is reported as < 1 nM. In the case of `CC[C@H](C)[C@H](NC(=O)OC)C(=O)N1CCC[C@H]1c1ncc(-c2ccc3oc4cc(-c5ccc6nc([C@@H]7CCCN7C(=O)[C@@H](NC(=O)OC)[C@@H](C)OC)[nH]c6c5)ccc4c(=O)c3c2)[nH]1` [Compound 145], the EC50 is reported as < 1 nM. For `COC(=O)N[C@H](C(=O)N1CCC[C@H]1c1ncc(-c2ccc3c(c2)C(C)(C)c2ccc(-c4ccc5nc([C@@H]6CCCN6C(=O)[C@@H](NC(=O)OC)[C@@H](C)OC)[nH]c5c4)cc2O3)[nH]1)[C@@H](C)OC` [Compound 146], the EC50 was < 1 nM. In the case of `[2H]C([2H])([2H])C([2H])(C([2H])([2H])[2H])[C@]([2H])(NC(=O)OC)C(=O)N1CCC[C@H]1c1ncc(-c2ccc3c(c2)C(C)(C)c2ccc(-c4ccc5nc([C@@H]6CCCN6C(=O)[C@@]([2H])(NC(=O)OC)C([2H])(C([2H])([2H])[2H])C([2H])([2H])[2H])[nH]c5c4)cc2O3)[nH]1` [Compound 147], the EC50 is reported as < 1 nM. For `C=CC[C@H](NC(=O)OC)C(=O)N1CCC[C@H]1c1ncc(-c2ccc3c(c2)C(C)(C)c2ccc(-c4ccc5nc([C@@H]6CCCN6C(=O)[C@H](CC=C)NC(=O)OC)[nH]c5c4)cc2O3)[nH]1` [Compound 148], the EC50 was < 1 nM. In the case of `COC(=O)N[C@H](C(=O)N1CCC[C@H]1c1ncc(-c2ccc3c(c2)C(C)(C)c2ccc(-c4ccc5nc([C@@H]6CCCN6C(=O)[C@@H](NC(=O)OC)C6CCOCC6)[nH]c5c4)cc2O3)[nH]1)C1CCOCC1` [Compound 149], the EC50 is reported as < 1 nM. With `C#CC[C@H](NC(=O)OC)C(=O)N1CCC[C@H]1c1ncc(-c2ccc3c(c2)C(C)(C)c2ccc(-c4ccc5nc([C@@H]6CCCN6C(=O)[C@H](CC#C)NC(=O)OC)[nH]c5c4)cc2O3)[nH]1` [Compound 150] the EC50 was < 1 nM. `COC(=O)N[C@H](C(=O)N1CCC[C@H]1c1ncc(-c2ccc3c(c2)Oc2nnc(-c4cnc([C@@H]5CCCN5C(=O)[C@@H](NC(=O)OC)C(C)C)[nH]4)cc2O3)[nH]1)C(C)C` [Compound 151] gave an EC50 of 1 to 9.9 nM. `COC(=O)N[C@H](C(=O)N1CCC[C@H]1c1ncc(-c2ccc3nc4cc(-c5cnc([C@@H]6CCCN6C(=O)[C@@H](NC(=O)OC)C(C)C)[nH]5)ccc4nc3c2)[nH]1)C(C)C` [Example 1] was tested, and the EC50 was < 1 nM. `COC(=O)N[C@@H](C(=O)N1CCC[C@H]1c1ncc(-c2ccc3nc4cc(-c5cnc([C@@H]6CCCN6C(=O)[C@H](NC(=O)OC)c6ccccc6)[nH]5)ccc4nc3c2)[nH]1)c1ccccc1` [Example 2] was tested, and the EC50 was < 1 nM. For `COC(=O)N[C@H](C(=O)N1CCC[C@H]1c1ncc(-c2ccc3c(c2)Oc2ccc(-c4cnc([C@@H]5CCCN5C(=O)[C@@H](NC(=O)OC)C(C)C)[nH]4)cc2O3)[nH]1)C(C)C` [Example 3], the EC50 was < 1 nM. Work on `COC(=O)N[C@H](C(=O)N1CCC[C@H]1c1ncc(-c2ccc3c(c2)Cc2cc(-c4cnc([C@@H]5CCCN5C(=O)[C@@H](NC(=O)OC)C(C)C)[nH]4)ccc2O3)[nH]1)C(C)C` [Example 4] yielded an EC50 of 10 to 999 nM. For `COC(=O)N[C@@H](C(=O)N1CCC[C@H]1c1ncc(-c2ccc3c(c2)Cc2cc(-c4cnc([C@@H]5CCCN5C(=O)[C@H](NC(=O)OC)c5ccccc5)[nH]4)ccc2O3)[nH]1)c1ccccc1` [Example 5], the EC50 was < 1 nM. With `COC(=O)N[C@H](C(=O)N1CCC[C@H]1c1ncc(-c2ccc3c(c2)Cc2ccc(-c4cnc([C@@H]5CCCN5C(=O)[C@@H](NC(=O)OC)C(C)C)[nH]4)cc2O3)[nH]1)C(C)C` [Example 6] the EC50 was < 1 nM. `COC(=O)N[C@H](C(=O)N1CCC[C@H]1c1ncc(-c2ccc3c(c2)CCc2cc(-c4cnc([C@@H]5CCCN5C(=O)[C@@H](NC(=O)OC)C(C)C)[nH]4)ccc2O3)[nH]1)C(C)C` [Example 7] was tested, and the EC50 was < 1 nM. With `COC(=O)N[C@H](C(=O)N1CCC[C@H]1c1ncc(-c2ccc3c(=O)c4cc(-c5cnc([C@@H]6CCCN6C(=O)[C@@H](NC(=O)OC)C(C)C)[nH]5)ccc4oc3c2)[nH]1)C(C)C` [Example 8] the EC50 was < 1 nM. `CC(C)(C)OC(=O)N1CCC[C@H]1c1ncc(-c2ccc3c(=O)c4cc(-c5cnc([C@@H]6CCCN6C(=O)OC(C)(C)C)[nH]5)ccc4oc3c2)[nH]1` [Example 9] was tested, and the EC50 was 10 to 999 nM. In the case of `COC(=O)N[C@H](C(=O)N1CCC[C@H]1c1ncc(-c2ccc3c(c2)Oc2ccc(-c4cnc([C@@H]5CCCN5C(=O)[C@@H](NC(=O)OC)C(C)C)[nH]4)cc2C3(C)C)[nH]1)C(C)C` [Example 10], the EC50 is reported as < 1 nM. For `COC(=O)N[C@H](C(=O)N1CCC[C@H]1c1ncc(-c2ccc3c(c2)c(=O)c2ccc(-c4cnc([C@@H]5CCCN5C(=O)[C@@H](NC(=O)OC)C(C)C)[nH]4)cc2n3C)[nH]1)C(C)C` [Example 11], the EC50 was < 1 nM. `COC(=O)N[C@H](C(=O)N1CCC[C@H]1c1ncc(-c2ccc3c(c2)CCc2ccc(-c4cnc([C@@H]5CCCN5C(=O)[C@@H](NC(=O)OC)C(C)C)[nH]4)cc2O3)[nH]1)C(C)C` [Example 12] was tested, and the EC50 was < 1 nM. In the case of `COC(=O)N[C@H](C(=O)N1CCC[C@H]1c1ncc(-c2ccc3c(c2)CN(C)c2ccc(-c4cnc([C@@H]5CCCN5C(=O)[C@@H](NC(=O)OC)C(C)C)[nH]4)cc2CN3C)[nH]1)C(C)C` [Example 13], the EC50 is reported as < 1 nM. `COC(=O)N[C@H](C(=O)N1CCC[C@H]1c1ncc(-c2ccc3c(c2)Oc2ccc(-c4cnc([C@@H]5CCCN5C(=O)[C@@H](NC(=O)OC)C(C)C)[nH]4)cc2C(=O)N3)[nH]1)C(C)C` [Example 14] showed an EC50 of 10 to 999 nM. For `COC(=O)N[C@H](C(=O)N1CCC[C@H]1c1ncc(-c2ccc3c(=O)c4cc(-c5cnc([C@@H]6CCCN6C(=O)[C@H](NC(=O)OC)c6ccccc6)[nH]5)ccc4oc3c2)[nH]1)C(C)C` [Example 15], the EC50 was < 1 nM. With `COC(=O)N[C@H](C(=O)N1CCC[C@H]1c1ncc(-c2ccc3c(=O)c4cc(-c5cnc([C@@H]6CCCN6C(=O)[C@@H](NC(=O)OC)C6CCOCC6)[nH]5)ccc4oc3c2)[nH]1)C(C)C` [Example 16] the EC50 was < 1 nM. With `COC(=O)N[C@H](C(=O)N1CCC[C@H]1c1ncc(-c2ccc3oc4cc(-c5cnc([C@@H]6CCCN6C(=O)[C@@H](NC(=O)OC)C6CCOCC6)[nH]5)ccc4c(=O)c3c2)[nH]1)C(C)C` [Example 17] the EC50 was < 1 nM. For `COC(=O)N[C@H](C(=O)N1CCC[C@H]1c1ncc(-c2ccc3oc4cc(-c5cnc([C@@H]6CCCN6C(=O)[C@H](NC(=O)OC)c6ccccc6)[nH]5)ccc4c(=O)c3c2)[nH]1)C(C)C` [Example 18], the EC50 was < 1 nM. In the case of `COC(=O)N[C@H](C(=O)N1CCC[C@H]1c1ncc(-c2ccc3c(=O)c4cc(-c5cnc([C@@H]6CCCN6C(=O)[C@H](NC(=O)OC6CCOCC6)c6ccccc6)[nH]5)ccc4oc3c2)[nH]1)C(C)C` [Example 19], the EC50 is reported as < 1 nM. For `COC(=O)N[C@@H](C)C(=O)N1CCC[C@H]1c1ncc(-c2ccc3oc4cc(-c5cnc([C@@H]6CCCN6C(=O)[C@@H](NC(=O)OC)C(C)C)[nH]5)ccc4c(=O)c3c2)[nH]1` [Example 20], the EC50 was < 1 nM. With `COC(=O)N[C@H](C(=O)N1CCC[C@H]1c1ncc(-c2ccc3oc4cc(-c5cnc([C@@H]6CCCN6C(=O)[C@H](NC(=O)OC6CCOCC6)c6ccccc6)[nH]5)ccc4c(=O)c3c2)[nH]1)C(C)C` [Example 21] the EC50 was < 1 nM. In the case of `COC(=O)N[C@H](C(=O)N1CCC[C@H]1c1ncc(-c2ccc3oc4cc(-c5cnc([C@@H]6CCCN6C(=O)[C@@H](NC(=O)OC)C(C)C)[nH]5)c(F)cc4c(=O)c3c2)[nH]1)C(C)C` [Example 22], the EC50 is reported as < 1 nM. For `COC(=O)N[C@H](C(=O)N1CCC[C@H]1c1ncc(-c2ccc3oc4cc(-c5cnc([C@@H]6CCCN6C(=O)[C@@H](NC(=O)OC)C6CCOCC6)[nH]5)c(F)cc4c(=O)c3c2)[nH]1)C1CCOCC1` [Example 23], the EC50 was < 1 nM. With `COC(=O)N[C@@H](C(=O)N1CCC[C@H]1c1ncc(-c2ccc3oc4cc(-c5cnc([C@@H]6CCCN6C(=O)[C@H](NC(=O)OC)c6ccccc6)[nH]5)c(F)cc4c(=O)c3c2)[nH]1)c1ccccc1` [Example 24] the EC50 was < 1 nM.
